According to patent US20220380286A1, “METHOD FOR PRODUCING 2,2'-BIS(CARBOXYMETHOXY)-1,1'-BINAPHTHYL” (HONSHU CHEMICAL INDUSTRY CO., LTD., priority 2019, published 2022):

Assay: solubility in water (concentration of saturated solution)
Type: physicochemical
Details: 30° C., crystals filtered in Example 2
Description: After two hours, the reaction solution was gradually cooled and filtered at 25° C. (corresponding to the separation step of the present invention) to obtain crystals. […] The crystals were washed with water (18 g) and then washed with methyl isobutyl ketone (18 g) to obtain 109.0 g of a sodium salt of 2,2′-bis(carboxymethoxy)-1,1′-binaphthyl. For the removal of a mother liquor during the filtration, centrifugal force (small centrifuge H-122, manufactured by KOKUSAN Co., Ltd.) was utilized.

O=C([O-])COc1ccc2ccccc2c1-c1c(OCC(=O)[O-])ccc2ccccc12.[Na+].[Na+] [sodium salt of 2,2′-bis(carboxymethoxy)-1,1′-binaphthyl]
concentration of saturated solution in water: 3.8 wt %
